Like-named read-outs stand apart in the source and are kept apart here.
Columns and labels:
[1] = test system: interleukin-13 induced STAT6 phosphorylation in BEAS-2B human lung epithelial cells; assay: AlphaScreen JAKI cellular potency assay (BEAS-2B); format: cell-based; conditions: vs Examples 1, 7, 13, 6 respectively
Method: The AlphaScreen JAKI cellular potency assay was carried out by measuring interleukin-13 (IL-13, R&D Systems) induced STAT6 phosphorylation in BEAS-2B human lung epithelial cells (ATCC). The anti-STAT6 antibody (Cell Signaling Technologies) was conjugated to AlphaScreen acceptor beads (Perkin Elmer), while the anti-pSTAT6 (pTyr641) antibody (Cell Signaling Technologies) was biotinylated using EZ-Link Sulfo-NHS-Biotin (Thermo Scientific).
BEAS-2B cells were grown at 37° C. in a 5% CO2 humidified incubator in 50% DMEM/50% F-12 medium (Life Technologies) supplemented with 10% FBS (Hyclone), 100 U/mL penicillin, 100 μg/mL streptomycin (Life Technologies), and 2 mM GlutaMAX (Life Technologies). On day 1 of the assay, cells were seeded at a 7,500 cells/well density in white poly-D-lysine-coated 384-well plates (Corning) with 25 μL medium, and were allowed to adhere overnight in the incubator. On day 2 of the assay, the medium was removed and replaced with 12 μL of assay buffer (Hank's Balanced Salt Solution/HBSS, 25 mM HEPES, and 1 mg/ml bovine serum albumin/BSA) containing dose-responses of test compounds. Compounds were serially diluted in DMSO and then diluted another 1000-fold in media to bring the final DMSO concentration to 0.1%. Cells were incubated with test compounds at 37° C. for 1 h, and followed by the addition of 12 μl of pre-warmed IL-13 (80 ng/ml in assay buffer) for stimulation. After incubating at 37° C. for 30 min, the assay buffer (containing compound and IL-13) was removed, and 10 μl of cell lysis buffer (25 mM HEPES, 0.1% SDS, 1% NP-40, 5 mM MgCl2, 1.3 mM EDTA, 1 mM EGTA, and supplement with Complete Ultra mini protease inhibitors and PhosSTOP from Roche Diagnostics). The plates were shaken at ambient temperature for 30 min before the addition of detection reagents. […] After a minimum of 2 h incubation, the assay plates were read on the EnVision plate reader.
Results were expressed as the negative logarithm of the IC50 value, pIC50.

[2] = mouse, in vivo
Method: (§1) Adult balb/c mice from Harlan were used in the assay. On the day of study, animals were lightly anesthetized with isoflurane and administered either vehicle or test compound (0.5 mg/mL, 50 μL total volume over several breaths) via oral aspiration. Animals were placed in lateral recumbency post dose and monitored for full recovery from anesthesia before being returned to their home cage. Four hours later, animals were once again briefly anesthetized and challenged with either vehicle or IL-13 (0.03 μg total dose delivered, 50 μL total volume) via oral aspiration before being monitored for recovery from anesthesia and returned to their home cage. One hour after vehicle or IL-13 administration, lungs were collected for both pSTAT6 detection using an anti-pSTAT6 ELISA (rabbit mAb capture/coating antibody; mouse mAb detection/report antibody: anti-pSTAT6-pY641; secondary antibody: anti-mouse IgG-HRP) and analyzed for total drug concentration as described above in Assay 4.
Selected compounds of the invention were characterized in both the pharmacokinetic assay (Assay 4) and pharmacodynamic assay (Assay 5). A good correlation was observed between test compound concentration in lung determined in the pharmacokinetic assay and in the pharmacodynamic assay at a similar time points post dosing. Observation of significant compound concentration in the mouse lung in the pharmacodynamic assay confirmed that the observed inhibition of IL-13 induced pSTAT6 induction was a result of the activity of the test compound.

JAK1 = JAK1 (Homo sapiens (Human), UniProt P23458); assay: LanthaScreen JAK biochemical assay (JAK1); conditions: vs Examples 1, 7, 13, 6 respectively
[3] = Pharmacokinetics in plasma and lung in mouse; format: in vivo; conditions: ratio of lung AUC (μg hr/g) to plasma AUC (μg hr/mL), oral aspiration, 0.2 mg/mL, 50 uL
Method: Plasma and lung levels of test compounds and ratios thereof were determined in the following manner. BALB/c mice from Charles River Laboratories were used in the assay. Test compounds were individually formulated in 20% propylene glycol in pH 4 citrate buffer at a concentration of 0.2 mg/mL and 50 uL of the dosing solution was introduced into the trachea of a mouse by oral aspiration. At various time points (typically 0.167, 2, 6, 24 hr) post dosing, blood samples were removed via cardiac puncture and intact lungs were excised from the mice. Blood samples were centrifuged (Eppendorf centrifuge, 5804R) for 4 minutes at approximately 12,000 rpm at 4° C. to collect plasma. Lungs were padded dry, weighed, and homogenized at a dilution of 1:3 in sterile water. Plasma and lung levels of test compound were determined by LC-MS analysis against analytical standards constructed into a standard curve in the test matrix. A lung to plasma ratio was determined as the ratio of the lung AUC in μg hr/g to the plasma AUC in μg hr/mL, where AUC is conventionally defined as the area under the curve of test compound concentration vs. time.

[4] = test system: IL-13 induced pSTAT6 in lung tissue; assay: Murine model of IL-13 induced pSTAT6 induction in lung tissue; format: in vivo; conditions: mouse lung, Assay 5 conditions
Method: Il-13 is an important cytokine underlying the pathophysiology of asthma (Kudlacz et al. Eur. J. Pharmacol, 2008, 582, 154-161). IL-13 binds to cell surface receptors activating members of the Janus family of kinases (JAK) which then phosphorylate STAT6 and subsequently activates further transcription pathways. In the described model, a dose of IL-13 was delivered locally into the lungs of mice to induce the phosphorylation of STAT6 (pSTAT6) which is then measured as the endpoint.
as §1, with “On the day of study, animals were lightly anesthetized with isoflurane and administered either vehicle or test compound (0.5 mg/mL, 50 μL total volume over several breaths) via oral aspiration.” left out, “4. […]” for “4.”

[5] = Dynamic moisture sorption assessment; format: physicochemical; conditions: humidity range of 5% to 90% relative humidity, room temperature (25° C.)
Method: Dynamic moisture sorption (DMS) measurement was performed using a VTI atmospheric microbalance, SGA-100 system (VTI Corp., Hialeah, Fla. 33016). A weighed sample was used and the humidity was lowest possible value (close to 0% RH) at the start of the analysis. The DMS analysis consisted of an initial drying step (˜0% RH) for 120 minutes, followed by two cycles of sorption and desorption with a scan rate of 5% RH/step over the humidity range of 5% RH to 90% RH. The DMS run was performed isothermally at 25° C.

Sequence of JAK1 (P23458 whole entry): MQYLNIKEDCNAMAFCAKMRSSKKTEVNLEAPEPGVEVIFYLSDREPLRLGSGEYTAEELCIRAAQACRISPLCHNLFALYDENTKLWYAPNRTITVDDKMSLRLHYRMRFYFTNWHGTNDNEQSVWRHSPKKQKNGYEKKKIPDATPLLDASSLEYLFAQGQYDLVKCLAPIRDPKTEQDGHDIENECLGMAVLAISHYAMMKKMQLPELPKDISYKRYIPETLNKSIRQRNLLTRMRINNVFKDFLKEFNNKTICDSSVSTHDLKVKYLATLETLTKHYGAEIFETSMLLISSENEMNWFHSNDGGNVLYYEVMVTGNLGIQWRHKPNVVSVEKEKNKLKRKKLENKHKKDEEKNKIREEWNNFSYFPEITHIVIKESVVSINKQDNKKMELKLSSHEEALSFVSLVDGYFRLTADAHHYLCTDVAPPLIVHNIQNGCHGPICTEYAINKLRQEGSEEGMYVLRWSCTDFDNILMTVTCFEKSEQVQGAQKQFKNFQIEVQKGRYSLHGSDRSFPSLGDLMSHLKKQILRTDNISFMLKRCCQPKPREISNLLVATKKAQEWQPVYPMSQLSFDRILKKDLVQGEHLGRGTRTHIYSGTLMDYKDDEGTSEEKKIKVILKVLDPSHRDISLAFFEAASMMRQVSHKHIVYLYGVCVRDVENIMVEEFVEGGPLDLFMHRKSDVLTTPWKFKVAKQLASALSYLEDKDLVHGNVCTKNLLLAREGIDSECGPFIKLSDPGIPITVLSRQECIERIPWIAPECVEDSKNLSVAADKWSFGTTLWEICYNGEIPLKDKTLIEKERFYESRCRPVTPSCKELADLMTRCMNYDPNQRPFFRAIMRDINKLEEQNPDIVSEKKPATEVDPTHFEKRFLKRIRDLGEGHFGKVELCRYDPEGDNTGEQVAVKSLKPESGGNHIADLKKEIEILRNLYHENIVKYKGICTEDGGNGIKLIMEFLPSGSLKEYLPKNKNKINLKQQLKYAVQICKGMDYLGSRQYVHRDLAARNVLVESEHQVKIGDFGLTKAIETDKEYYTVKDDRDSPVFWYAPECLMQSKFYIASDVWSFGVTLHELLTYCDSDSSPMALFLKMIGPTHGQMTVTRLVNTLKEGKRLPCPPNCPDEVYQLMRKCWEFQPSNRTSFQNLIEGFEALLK

CCc1cc(O)c(F)cc1-c1ccc2c(-c3nc4c([nH]3)CCN(CCC(C)C)C4)n[nH]c2c1 [Example C-2]
fold less potent than the corresponding compound of the invention in the BEAS-2B cellular assay [1]: 6 fold
factor by which lung concentration was smaller than for the corresponding compound of the invention [2]: 52
fold less potent than the corresponding compound of the invention in the enzyme assay (JAK1): 3 fold

CCc1cc(O)c(F)cc1-c1ccc2c(-c3nc4c([nH]3)CCN(C[C@@H]3CCCN3C)C4)n[nH]c2c1 [Example 11, (S)-5-ethyl-2-fluoro-4-(3-(5-((1-methylpyrrolidin-2-yl)methyl)-4,5,6,7-tetrahydro-1H-imidazo[4,5-c]pyridin-2-yl)-1H-indazol-6-yl)phenol]
Lung to Plasma ratio Assay 4 [3]: A (A denotes a ratio >100)

CCc1cc(O)c(F)cc1-c1ccc2c(-c3nc4c([nH]3)CCN(C3CN(C5CCS(=O)(=O)C5)C3)C4)n[nH]c2c1 (stereo not drawn) [Example 1-15]
pSTAT6 inhibition in the pharmacodynamic assay [4]: noted as exceptions

CCc1cc(O)c(F)cc1-c1ccc2c(-c3nc4c([nH]3)CCN(C[C@H]3COCCN3)C4)n[nH]c2c1 [Example 13, (S)-5-Ethyl-2-fluoro-4-(3-(5-(morpholin-3-ylmethyl)-4,5,6,7-tetrahydro-1H-imidazo[4,5-c]pyridin-2-yl)-1H-indazol-6-yl)phenol]
Lung to Plasma ratio Assay 4 [3]: A (A denotes a ratio >100)

CCc1cc(O)c(F)cc1-c1ccc2c(-c3nc4c([nH]3)CCN(C[C@@H]3COCCN3)C4)n[nH]c2c1 [Example 14, (R)-5-Ethyl-2-fluoro-4-(3-(5-(morpholin-3-ylmethyl)-4,5,6,7-tetrahydro-1H-imidazo[4,5-c]pyridin-2-yl)-1H-indazol-6-yl)phenol]
Lung to Plasma ratio Assay 4 [3]: A (A denotes a ratio >100)

CCc1cc(O)c(F)cc1-c1ccc2c(-c3nc4c([nH]3)CCN(CCNC3(C#N)CC3)C4)n[nH]c2c1 [Example 3-1]
pSTAT6 inhibition in the pharmacodynamic assay [4]: noted as exceptions

CCc1cc(O)c(F)cc1-c1ccc2c(-c3nc4c([nH]3)CCN(C3CC(C)C3)C4)n[nH]c2c1 (stereo not drawn) [Example C-1, 5-Ethyl-2-fluoro-4-(3-(5-(3-methylcyclobutyl)-4,5,6,7-tetrahydro-1H-imidazo[4,5-c]pyridin-2-yl)-1H-indazol-6-yl)phenol]
factor by which lung concentration was smaller than for the corresponding compound of the invention ([2]; balb/c, 5 h): 36
fold less potent than the corresponding compound of the invention in the enzyme assay (JAK1): 2 fold

CCc1cc(O)c(F)cc1-c1ccc2c(-c3nc4c([nH]3)CCN(CC3CCCOC3)C4)n[nH]c2c1 (stereo not drawn) [Example C-3]
fold less potent than the corresponding compound of the invention in the BEAS-2B cellular assay [1]: 3 fold
factor by which lung concentration was smaller than for the corresponding compound of the invention [2]: 13
fold less potent than the corresponding compound of the invention in the enzyme assay (JAK1): 6 fold

CCc1cc(O)c(F)cc1-c1ccc2c(-c3nc4c([nH]3)CCN(CCN(C)CC(C)C)C4)n[nH]c2c1 [Example 3-33]
Lung to Plasma ratio Assay 4 [3]: A (A denotes a ratio >100)

CCc1cc(O)c(F)cc1-c1ccc2c(-c3nc4c([nH]3)CCN(C3CCN(C)CC3)C4)n[nH]c2c1 [crystalline hydrate, 5-ethyl-2-fluoro-4-(3-(5-(1-methylpiperidin-4-yl)-4,5,6,7-tetrahydro-1H-imidazo[4,5-c]pyridin-2-yl)-1H-indazol-6-yl)phenol]
weight gain (dynamic moisture sorption) [5]: less than 0.12%

CCc1cc(O)c(F)cc1-c1ccc2c(-c3nc4c([nH]3)CCN(CC3CNC3)C4)n[nH]c2c1 [Example 14-7]
Lung to Plasma ratio Assay 4 [3]: A (A denotes a ratio >100)

CCc1cc(O)c(F)cc1-c1ccc2c(-c3nc4c([nH]3)CCN(C3CCC(C)CC3)C4)n[nH]c2c1 (stereo not drawn) [Example C-4]
fold less potent than the corresponding compound of the invention in the BEAS-2B cellular assay [1]: 6 fold
factor by which lung concentration was smaller than for the corresponding compound of the invention [2]: 23
fold less potent than the corresponding compound of the invention in the enzyme assay (JAK1): 2.5 fold

CCc1cc(O)c(F)cc1-c1ccc2c(-c3nc4c([nH]3)CCN(CCN3CCC[C@@H]3C)C4)n[nH]c2c1 [Example 15, (S)-5-ethyl-2-fluoro-4-(3-(5-(2-(2-methylpyrrolidin-1-yl)ethyl)-4,5,6,7-tetrahydro-1H-imidazo[4,5-c]pyridin-2-yl)-1H-indazol-6-yl)phenol]
Lung to Plasma ratio Assay 4 [3]: A (A denotes a ratio >100)

CCc1cc(O)c(F)cc1-c1ccc2c(-c3nc4c([nH]3)CCN(CCNC3CC(OC)C3)C4)n[nH]c2c1 (stereo not drawn) [Example 8, 5-Ethyl-2-fluoro-4-(3-(5-(2-((3-methoxycyclobutyl)amino)ethyl)-4,5,6,7-tetrahydro-1H-imidazo[4,5-c]pyridin-2-yl)-1H-indazol-6-yl)phenol]
Lung to Plasma ratio Assay 4 [3]: A (A denotes a ratio >100)
